# According to US4523033A, “Heart testing compound” (The United States of America as represented by the United …, priority 1983, dated 1985):
# Where two headings read alike, the source gives them in different places.
# Tests used:
# [1] = cited from earlier work
# [2] = Tissue distribution of radioactivity in rats after intravenous administration; format: in vivo; conditions: rat; for tissue uptake at 5 min / tissue uptake at 0.5 h / tissue uptake at 1 h / tissue uptake at 2 h / tissue uptake at 6 h / tissue uptake at 24 h / tissue uptake at 120 h: iv
# Method: In Table I, the tissue distribution of radioactivity in rats after intravenous administration of a bovine serium-albumin complex of the 15-(p-[^125 I]-iodophenyl)-6-Tellurapentadecanoic acid is summarized for various time periods from 5 minutes to 5 days.
# [3] = Cumulative excretion of radioactivity in urine and feces after injection; format: in vivo; conditions: rat
# Method: These studies were conducted over a five-day period, which represents a decay period of […] for 13.2-hr iodine-123. The cumulative excretion levels in urine and feces were 43.2±1.8% injected dose after two days and […] after five days. The radioactive content of the urine (20.8±2.1%) and feces 22.4±1.1%) were similar after two days, but after five days the cumulative fecal activity (41.4±4.3%) was greater than that for urine (30.5±4.0%).
# [4] = after five days, % injected dose, 7200 min
# [5] = after two days, % injected dose, 2880 min
structure (smiles),measurement,setting,value
CCCCCCCC[123Te]CCCCCCCC(=O)O [9-[^123m Te] telluraheptadecanoic acid],Uptake and retention in the myocardium (in words),[1]; Knapp et al 1981,rapid uptake and prolonged retention in the myocardium
O=C(O)CCCCCCCCCCCCCCc1ccc([125I])cc1 [15-(p-[^125 I]iodophenyl) pentadecanoic acid],Washout from the myocardium (in words),[1]; background,relatively rapid
O=C(O)CCCC[Te]CCCCCCCCCc1ccc([125I])cc1 [15-(p-[^125 I]iodophenyl)-6-tellurapentadecanoic acid],Heart retention of the maximum uptake observed after 5 minutes,[2]; after 6 hours,80%
same,Heart retention of the maximal value,[2]; after 24 hours,55%
same,tissue uptake at 5 min,"[2]; blood, 5 min, read-out: Distribution of radioactivity, Blood",0.26 %ID/g
same,tissue uptake at 0.5 h,"[2]; blood, 30 min, read-out: Distribution of radioactivity, Blood",0.45 %ID/g
same,tissue uptake at 1 h,"[2]; blood, 60 min, read-out: Distribution of radioactivity, Blood",0.34 %ID/g
same,tissue uptake at 2 h,"[2]; blood, 2 h, read-out: Distribution of radioactivity, Blood",0.42 %ID/g
same,tissue uptake at 6 h,"[2]; blood, 6 h, read-out: Distribution of radioactivity, Blood",0.31 %ID/g
same,tissue uptake at 24 h,"[2]; blood, 1 d, read-out: Distribution of radioactivity, Blood",0.2 %ID/g
same,tissue uptake at 120 h,"[2]; blood, 5 d, read-out: Distribution of radioactivity, Blood",0.03 %ID/g
same,tissue uptake at 5 min,"[2]; heart, 5 min, read-out: Distribution of radioactivity, Heart",5.87 %ID/g
same,tissue uptake at 0.5 h,"[2]; heart, 30 min, read-out: Distribution of radioactivity, Heart",5.43 %ID/g
same,tissue uptake at 1 h,"[2]; heart, 60 min, read-out: Distribution of radioactivity, Heart",5.55 %ID/g
same,tissue uptake at 2 h,"[2]; heart, 2 h, read-out: Distribution of radioactivity, Heart",5.85 %ID/g
same,tissue uptake at 6 h,"[2]; heart, 6 h, read-out: Distribution of radioactivity, Heart",4.78 %ID/g
same,tissue uptake at 24 h,"[2]; heart, 1 d, read-out: Distribution of radioactivity, Heart",3.25 %ID/g
same,tissue uptake at 120 h,"[2]; heart, 5 d, read-out: Distribution of radioactivity, Heart",0.94 %ID/g
same,Blood clearance (in words),[2]; i.v.,rapid blood clearance
same,Blood levels (in words),[2]; i.v.,low blood levels
same,Deiodination (in words),[2]; i.v.,minimal deiodination
same,Myocardial uptake (in words),[2]; i.v.,rapid and pronounced myocardial uptake
same,Radioactivity accumulated in thyroid tissue (in words),[2]; i.v.,Only marginal radioactivity accumulated in the thyroid tissue
same,Retention of radioactivity in the heart (in words),[2]; i.v.,Prolonged retention of radioactivity
same,"Distribution of radioactivity, Blood","[2]; i.v., 5 min",2.00 % injected dose/organ
same,"Distribution of radioactivity, Heart","[2]; i.v., 5 min",2.98 % injected dose/organ
same,"Distribution of radioactivity, Kidneys","[2]; i.v., 5 min",1.25 % injected dose/organ
same,"Distribution of radioactivity, Liver","[2]; i.v., 5 min",50.94 % injected dose/organ
same,"Distribution of radioactivity, Lungs","[2]; i.v., 5 min",0.97 % injected dose/organ
same,"Distribution of radioactivity, Thyroid","[2]; i.v., 5 min",0.02 % injected dose/organ
same,"Distribution of radioactivity, Blood","[2]; i.v., 30 min",3.41 % injected dose/organ
same,"Distribution of radioactivity, Heart","[2]; i.v., 30 min",2.61 % injected dose/organ
same,"Distribution of radioactivity, Kidneys","[2]; i.v., 30 min",1.52 % injected dose/organ
same,"Distribution of radioactivity, Liver","[2]; i.v., 30 min",39.28 % injected dose/organ
same,"Distribution of radioactivity, Lungs","[2]; i.v., 30 min",1.05 % injected dose/organ
same,"Distribution of radioactivity, Thyroid","[2]; i.v., 30 min",0.02 % injected dose/organ
same,"Distribution of radioactivity, Blood","[2]; i.v., 60 min",2.66 % injected dose/organ
same,"Distribution of radioactivity, Heart","[2]; i.v., 60 min",2.87 % injected dose/organ
same,"Distribution of radioactivity, Kidneys","[2]; i.v., 60 min",1.73 % injected dose/organ
same,"Distribution of radioactivity, Liver","[2]; i.v., 60 min",39.03 % injected dose/organ
same,"Distribution of radioactivity, Lungs","[2]; i.v., 60 min",1.01 % injected dose/organ
same,"Distribution of radioactivity, Thyroid","[2]; i.v., 60 min",0.02 % injected dose/organ
same,"Distribution of radioactivity, Blood","[2]; i.v., 2 h",3.01 % injected dose/organ
same,"Distribution of radioactivity, Heart","[2]; i.v., 2 h",2.87 % injected dose/organ
same,"Distribution of radioactivity, Kidneys","[2]; i.v., 2 h",1.53 % injected dose/organ
same,"Distribution of radioactivity, Liver","[2]; i.v., 2 h",44.03 % injected dose/organ
same,"Distribution of radioactivity, Lungs","[2]; i.v., 2 h",1.29 % injected dose/organ
same,"Distribution of radioactivity, Thyroid","[2]; i.v., 2 h",0.04 % injected dose/organ
same,"Distribution of radioactivity, Blood","[2]; i.v., 6 h",2.26 % injected dose/organ
same,"Distribution of radioactivity, Heart","[2]; i.v., 6 h",2.32 % injected dose/organ
same,"Distribution of radioactivity, Kidneys","[2]; i.v., 6 h",1.25 % injected dose/organ
same,"Distribution of radioactivity, Liver","[2]; i.v., 6 h",46.39 % injected dose/organ
same,"Distribution of radioactivity, Lungs","[2]; i.v., 6 h",0.85 % injected dose/organ
same,"Distribution of radioactivity, Thyroid","[2]; i.v., 6 h",0.07 % injected dose/organ
same,"Distribution of radioactivity, Blood","[2]; i.v., 1 d",1.50 % injected dose/organ
same,"Distribution of radioactivity, Heart","[2]; i.v., 1 d",1.60 % injected dose/organ
same,"Distribution of radioactivity, Kidneys","[2]; i.v., 1 d",0.81 % injected dose/organ
same,"Distribution of radioactivity, Liver","[2]; i.v., 1 d",34.28 % injected dose/organ
same,"Distribution of radioactivity, Lungs","[2]; i.v., 1 d",0.70 % injected dose/organ
same,"Distribution of radioactivity, Thyroid","[2]; i.v., 1 d",0.26 % injected dose/organ
same,"Distribution of radioactivity, Blood","[2]; i.v., 5 d",0.23 % injected dose/organ
same,"Distribution of radioactivity, Heart","[2]; i.v., 5 d",0.45 % injected dose/organ
same,"Distribution of radioactivity, Kidneys","[2]; i.v., 5 d",0.23 % injected dose/organ
same,"Distribution of radioactivity, Liver","[2]; i.v., 5 d",6.46 % injected dose/organ
same,"Distribution of radioactivity, Lungs","[2]; i.v., 5 d",0.24 % injected dose/organ
same,"Distribution of radioactivity, Thyroid","[2]; i.v., 5 d",0.32 % injected dose/organ
same,tissue uptake at 5 min,"[2]; kidneys, 5 min, read-out: Distribution of radioactivity, Kidneys",1.02 %ID/g
same,tissue uptake at 0.5 h,"[2]; kidneys, 30 min, read-out: Distribution of radioactivity, Kidneys",1.25 %ID/g
same,tissue uptake at 1 h,"[2]; kidneys, 60 min, read-out: Distribution of radioactivity, Kidneys",1.41 %ID/g
same,tissue uptake at 2 h,"[2]; kidneys, 2 h, read-out: Distribution of radioactivity, Kidneys",1.37 %ID/g
same,tissue uptake at 6 h,"[2]; kidneys, 6 h, read-out: Distribution of radioactivity, Kidneys",1.12 %ID/g
same,tissue uptake at 24 h,"[2]; kidneys, 1 d, read-out: Distribution of radioactivity, Kidneys",0.7 %ID/g
same,tissue uptake at 120 h,"[2]; kidneys, 5 d, read-out: Distribution of radioactivity, Kidneys",0.2 %ID/g
same,tissue uptake at 5 min,"[2]; liver, 5 min, read-out: Distribution of radioactivity, Liver",9.57 %ID/g
same,tissue uptake at 0.5 h,"[2]; liver, 30 min, read-out: Distribution of radioactivity, Liver",7.78 %ID/g
same,tissue uptake at 1 h,"[2]; liver, 60 min, read-out: Distribution of radioactivity, Liver",7.69 %ID/g
same,tissue uptake at 2 h,"[2]; liver, 2 h, read-out: Distribution of radioactivity, Liver",8.38 %ID/g
same,tissue uptake at 6 h,"[2]; liver, 6 h, read-out: Distribution of radioactivity, Liver",8.37 %ID/g
same,tissue uptake at 24 h,"[2]; liver, 1 d, read-out: Distribution of radioactivity, Liver",6.24 %ID/g
same,tissue uptake at 120 h,"[2]; liver, 5 d, read-out: Distribution of radioactivity, Liver",1.28 %ID/g
same,tissue uptake at 5 min,"[2]; lungs, 5 min, read-out: Distribution of radioactivity, Lungs",1.14 %ID/g
same,tissue uptake at 0.5 h,"[2]; lungs, 30 min, read-out: Distribution of radioactivity, Lungs",1.25 %ID/g
same,tissue uptake at 1 h,"[2]; lungs, 60 min, read-out: Distribution of radioactivity, Lungs",1.48 %ID/g
same,tissue uptake at 2 h,"[2]; lungs, 2 h, read-out: Distribution of radioactivity, Lungs",1.57 %ID/g
same,tissue uptake at 6 h,"[2]; lungs, 6 h, read-out: Distribution of radioactivity, Lungs",1.1 %ID/g
same,tissue uptake at 24 h,"[2]; lungs, 1 d, read-out: Distribution of radioactivity, Lungs",0.89 %ID/g
same,tissue uptake at 120 h,"[2]; lungs, 5 d, read-out: Distribution of radioactivity, Lungs",0.33 %ID/g
same,tissue uptake at 5 min,"[2]; thyroid, 5 min, read-out: Distribution of radioactivity, Thyroid",1.52 %ID/g
same,tissue uptake at 0.5 h,"[2]; thyroid, 30 min, read-out: Distribution of radioactivity, Thyroid",1.51 %ID/g
same,tissue uptake at 1 h,"[2]; thyroid, 60 min, read-out: Distribution of radioactivity, Thyroid",1.48 %ID/g
same,tissue uptake at 2 h,"[2]; thyroid, 2 h, read-out: Distribution of radioactivity, Thyroid",3.51 %ID/g
same,tissue uptake at 6 h,"[2]; thyroid, 6 h, read-out: Distribution of radioactivity, Thyroid",5.89 %ID/g
same,tissue uptake at 24 h,"[2]; thyroid, 1 d, read-out: Distribution of radioactivity, Thyroid",22.8 %ID/g
same,tissue uptake at 120 h,"[2]; thyroid, 5 d, read-out: Distribution of radioactivity, Thyroid",30.2 %ID/g
same,tissue uptake at 5 min,"[2]; thyroid, after 5 minutes, read-out: Radioactivity accumulated in the thyroid tissue",1.52 %ID/g
same,tissue uptake at 6 h,"[2]; thyroid, after 6 hours, read-out: Radioactivity accumulated in the thyroid tissue",5.84 %ID/g
same,Cumulative excretion in urine and feces,[3]; [4],71.6±8.3%
same,Cumulative fecal activity,[3]; [4],41.4±4.3%
same,Cumulative urine activity,[3]; [4],30.5±4.0%
same,Cumulative excretion in urine and feces,"[3]; after two days, 2880 min",43.2±1.8 % injected dose
same,Radioactive content of the feces,[3]; [5],22.4±1.1%
same,Radioactive content of the urine,[3]; [5],20.8±2.1%
O=C(O)CCCCCCCCCCCCCCc1ccc(I)cc1 [15-(p-iodophenyl) pentadecanoic acid],Concentration of radioactive iodide in the blood (in words),[1]; Machulla et al 1980,avoids the high concentration of radioactive iodide in the blood
